In assay [1] the test system is CD28-dependent T cell growth. The assay can be described thus: Mouse T cell proliferation stimulated with anti-CD28 antibody and PMA (tritiumthymidine uptake). Format: cell-based. Conditions: for IC50: BALB/c mouse T cells, 10 ng/mL PMA and 250 ng/mL anti-CD28 antibody, tritiumthymidine uptake, read-out: CD28-dependent T cell growth suppressive action (IC50); for CD28-dependent T cell growth suppressive action (in words): mouse T cells stimulated with PMA and anti-CD28 antibody. As for the experimental part:
The spleen was aseptically isolated from 6-7-week-old male BALB/c mice (CHARLES RIVER LABORATORIES JAPAN, INC.), and splenocyte suspension was prepared using RPMI1640 medium (manufactured by Sigma-Aldrich Ltd.). After hemolysis by a hypotonic treatment using a mixed solution of 0.83% aqueous ammonium chloride and Tris-HCl buffer (pH 7.65) at 9:1, a T cell concentrated fraction was obtained using a T cell concentrated column (manufactured by R&D systems). A cell suspension prepared using RPMI1640 medium containing 10% fetal calf serum (FCS, manufactured by Sigma-Aldrich Ltd.) was added to a flat-bottomed 96 well microtest plate (manufactured by Becton, Dickinson and Company) at 5×10^5 cells/well. Furthermore, a test compound diluted with a medium to the final concentration of 1-10000 nmol/L, 10 ng/mL PMA (manufactured by Sigma-Aldrich Ltd.) and 250 ng/mL anti-CD28 antibody (manufactured by BD pharmingen) were added, and the mixture was cultured under the conditions of 37° C., 5% carbon dioxide, 95% air for 20 hr. After the completion of culture, tritiumthymidine (specific activity: […], manufactured by MP Biochemicals) was added at 18.5 kBq/well, and the mixture was further cultured for 4 hr. Then, the cells were recovered in a glass fiber filter using a cell harvester (manufactured by Molecular Devices Corp.), the radioactivity taken into the cells was measured using a plate scintillation counter (microbeta 1460, manufactured by PerkinElmer), based on which the mouse T cell growth induced by stimulation with PMA and anti-CD28 antibody was measured. To be specific, suppressing rate (%)=(1−(radioactivity (cpm) of well added with test compound)/(radioactivity (cpm) of well without addition of test compound))×100 was calculated from the average amount of tritiumthymidine uptake (cpm) of T cells in each well added with various concentrations of test compound. In addition, based on the dose response curve obtained by plotting the average tritiumthymidine uptake amount (cpm) or suppressing rate on the vertical axis and the concentration on the transverse axis, the concentration of the compound (IC50) suppressing the value to 50% of that of the control group was determined by nonlinear regression.

Assay [2] has as its system TYPE II Collagen-Induced Arthritis in DBA/1J Mouse. The assay can be described thus: Type II collagen-induced arthritis in DBA/1J mouse. Type of assay: in vivo. To be noted: 840 h; for inhibition in vivo at 3 mg/kg: 3 mg/kg oral, 2 weeks from booster, average arthritis score at 35 days after primary immunization, P <0.05, read-out: suppressing rate (%) of arthritis score. As to the method: Bovine Type II collagen (purchased from collagen technical workshop) (100-200 μg) was mixed with complete Freund's adjuvant (manufactured by Sigma-Aldrich Ltd.) containing killed tuberculosis H37Ra. Using the resulting emulsion, 6 to 7-week-old male DBA/1J mice (CHARLES RIVER LABORATORIES JAPAN, INC.) were subcutaneously immunized at the tail root twice at 3 week intervals, whereby arthritis was developed. A test compound was suspended or dissolved in 0.5% carboxymethylcellulose (manufactured by Sigma-Aldrich Ltd.), and repetitively administered orally at a dose of 0.1-30 mg/kg body weight using an oral gavage needle for 2 weeks from the day of booster. As to this model, the symptoms of arthritis of four limbs were evaluated based on the following judgment criteria using the scores of from 0 to 4. The arthritis score of each mouse was shown by the total of the scores of four limbs (maximum: 16 points).
As regards the arthritis score, each group (n=5-6) was evaluated using an average value and mean error, with a group administered only with a vehicle being control, and Mann-Whitney U test was used for statistical analysis, wherein p value of 0.05 or below was determined to be significant. In the following, the suppressive action of the compound of the present invention on mouse collagen induced arthritis is shown by the suppressing rate (%) (1−(average arthritis score of compound administration group)/(average arthritis score of control group)×100) calculated from the average arthritis score at 35 days after the primary immunization.

Structures are written as SMILES. Where two headings read alike, the source gives them in different places.

These results are taken from patent US8044042B2, “Thienotriazolodiazepine compound and medicinal use thereof” (Mitsubishi Tanabe Pharma Corporation, priority 2005, dated 2011).

As usually defined, the IC50 is the concentration at which inhibition is half-maximal. Regarding `COC(=O)C[C@@H]1N=C(c2ccc(NC(=O)CCc3ccccc3)cc2)c2c(sc(C)c2C)-n2c(C)nnc21` [Example 311, Methyl (S)-{2,3,9-trimethyl-4-[4-(3-phenylpropionylamino)phenyl]-6H-thieno[3,2-f][1,2,4]triazolo[4,3-a][1,4]diazepin-6-yl}acetate], the IC50 in assay [1] (T-cell) turned out to be 25 nM. Also, in assay [1], the “CD28-dependent T cell growth suppressive action (in words)” value is “have a CD28-dependent T cell growth suppressive action”. For the same molecule, the inhibition in vivo at 3 mg/kg in assay [2] amounted to 85.2%.
For the molecule `Cc1sc2c(c1C)C(c1ccc(-c3cccc(C#N)c3)cc1)=NCc1nnc(C)n1-2` [Example 253, 4-(3′-cyanobiphenyl-4-yl)-2,3,9-trimethyl-6H-thieno[3,2-f][1,2,4]triazolo[4,3-a][1,4]diazepin], the IC50 in assay [1] (T-cell) came out at 100 nM. The “CD28-dependent T cell growth suppressive action (in words)” value in assay [1] is reported as “have a CD28-dependent T cell growth suppressive action”. Further, the inhibition in vivo at 10 mg/kg in assay [2] (po, read-out: suppressing rate (%) of arthritis score) worked out at 46.4%.
Regarding `COC(=O)C[C@@H]1N=C(c2ccc(Nc3ccccc3)cc2)c2c(sc(C)c2C)-n2c(C)nnc21` [Example 120, Methyl (S)-{2,3,9-trimethyl-4-(4-phenylaminophenyl)-6H-thieno[3,2-f][1,2,4]triazolo[4,3-a][1,4]diazepin-6-yl}acetate], the IC50 in assay [1] (T-cell) worked out at 1.1 nM. The “CD28-dependent T cell growth suppressive action (in words)” value in assay [1] was “have a CD28-dependent T cell growth suppressive action”. In assay [2], the inhibition in vivo at 3 mg/kg is 53.1%.
As for `C=CC[C@@H]1/C=C(\C)C[C@H](C)C[C@H](OC)[C@H]2O[C@@](O)(C(=O)C(=O)N3CCCC[C@H]3C(=O)O[C@H](/C(C)=C/[C@@H]3CC[C@@H](O)[C@H](OC)C3)[C@H](C)[C@@H](O)CC1=O)[C@H](C)C[C@@H]2OC` [Tacrolimus, tacrolimus, reference compound], in assay [1] (1 μM, calcineurin inhibitor), the “inhibition of T cell growth at 1 μM (in words)” value was “hardly inhibits the growth even at 1 μM”. Further, the half-inhibitory concentration (IC50) in assay [1] (T-cell) was > 1000 nM.
Consider `COC(=O)C[C@@H]1N=C(c2ccc(-c3ccccc3)cc2)c2c(sc(C)c2C)-n2c(C)nnc21` [Example 61, Methyl (S)-{4-biphenyl-2,3,9-trimethyl-6H-thieno[3,2-f][1,2,4]triazolo[4,3-a][1,4]diazepin-6-yl}acetate], for which, in assay [1], the IC50 stood at 55 nM and the “CD28-dependent T cell growth suppressive action (in words)” value was “have a CD28-dependent T cell growth suppressive action”.
